Assay results from patent US6630497B2, “1-phenyl imidazol-2-one biphenylmethyl compounds for treatment of circulatory disorders” (G.D. Searle & Co, priority 1993, dated 2003).
pIC50: −log10 of the molar value. Blank lines part the entries; values can stand above or below the compound they belong to.

Legend:
[1] = molecular target: smooth muscle angiotensin II receptor; assay: Assay A: Angiotensin II Binding Activity (125I-AII displacement, rat uterine membrane preparation); conditions: 50% displacement of specifically bound 125I-AII, rat uterine membranes, 25° C., 60 min
Procedure: Compounds of the invention were tested for ability to bind to the smooth muscle angiotensin II receptor using a rat uterine membrane preparation. […] Other chemicals were obtained from Sigma Chemical Co. This assay was carried out according to the method of Douglas et al [Endocrinology, 106, 120-124 (1980)]. Rat uterine membranes were prepared from fresh tissue. All procedures were carried out at 4° C. Uteri were stripped of fat and homogenized in phosphate-buffered saline at pH 7.4 containing 5 mM EDTA. The homogenate was centrifuged at 1500×g for 20 min., and the supernatant was recentrifuged at 100,000×g for 60 min. The pellet was resuspended in buffer consisting of 2 mM EDTA and 50 mM Tris-HCl (pH 7.5) to a final protein concentration of 4 mg/ml. […] The reaction was initiated by the addition of membrane protein and the mixture was incubated at 25° C. for 60 min. The incubation was terminated with ice-cold 50 mM Tris-HCl (pH 7.5) and the mixture was filtered to separate membrane-bound labelled peptide from the free ligand. The incubation tube and filter were washed with ice-cold buffer. Filters were assayed for radioactivity in a Micromedic gamma counter. Nonspecific binding was defined as binding in the presence of 10 μM of unlabelled AII. Specific binding was calculated as total binding minus nonspecific binding.
Binding data were analyzed by a nonlinear least-squares curve fitting program.

rabbit aortic rings = assay: Assay B: In Vitro Vascular Smooth Muscle Response for AII; type: cell-based; design: key: NC = Non-competitive Antagonist; conditions: AII contraction
Procedure: The compounds of the invention were tested for antagonist activity in rabbit aortic rings. Male New Zealand white rabbits (2-2.5 kg) were sacrificed using an overdose of pentobarbital and exsanguinated via the carotid arteries. The thoracic aorta was removed, cleaned of adherent fat and connective tissue and then cut into 3-mm ring segments. The endothelium was removed from the rings by gently sliding a rolled-up piece of filter paper into the vessel lumen. The rings were then mounted in a water-jacketed tissue bath, maintained at 37° C., between moveable and fixed ends of a stainless steel wire with the moveable end attached to an FT03 Grass transducer coupled to a Model 7D Grass Polygraph for recording isometric force responses. The bath was filled with 20 ml of oxygenated (95% oxygen/5% carbon dioxide) Krebs solution of the following composition (mM): […], 1.2 NaH2P04, 1.2 MgS04, 2.5 CaCl2, and 11.4 glucose. The preparations were equilibrated for one hour before approximately one gram of passive tension was placed on the rings. Angiotensin II concentration-response curves were then recorded (3×10^−10 to 1×10^−5 M). […] The effectiveness of the test compound was expressed in terms of pA2 values and were calculated according to H. O. Schild [Br. J. Pharmacol. Chemother., 2,189-206 (1947)]. […] Each test antagonist was evaluated in aorta rings from two rabbits.

pressor response to AII = assay: Assay C: In Vivo Intragastric Pressor Assay Response for AII Antagonists; conditions: rat, 3 mg/kg intragastric (i.g.); for Assay C Duration: duration of inhibition of AII pressor response, measured up to 180 min; for Assay C Inhibition (%): inhibition of pressor response to 30 ng/kg AII bolus
Procedure: Male Sprague-Dawley rats weighing 225-300 grams were anesthetized with methohexital (30 mg/kg, i.p.) and catheters were implanted into the femoral artery and vein. The catheters were tunneled subcutaneously to exit dorsally, posterior to the head and between the scapulae. The catheters were filled with heparin (1000 units/ml of saline). The rats were returned to their cage and allowed regular rat chow and water ad libitum. After full recovery from surgery (3-4 days), rats were placed in Lucite holders and the arterial line was connected to a pressure transducer. Arterial pressure was recorded on a Gould polygraph (mmHg). Angiotensin II was administered as a 30 ng/kg bolus via the venous catheter delivered in a 50 μl volume with a 0.2 ml saline flush. The pressor response in mm Hg was measured by the difference from pre-injection arterial pressure to the maximum pressure achieved. The AII injection was repeated every 10 minutes until three consecutive injections yielded responses within 4 mmHg of each other. These three responses were then averaged and represented the control response to AII. The test compound was suspended in 0.5% methylcellulose in water and was administered by gavage. The volume administered was 2 ml/kg body weight. The standard dose was 3 mg/kg. Angiotensin II bolus injections were given at 30, 45, 60, 75, 120, 150, and 180 minutes after gavage. The pressor response to AII was measured at each time point. The rats were then returned to their cage for future testing. A minimum of 3 days was allowed between tests. Percent inhibition was calculated for each time point following gavage by the following formula: [(Control Response—Response at time point)/Control Response] ×100.

SMILES: CCCCc1cn(-c2ccccc2C(C)C)c(=O)n1Cc1ccc(-c2ccccc2-c2nnn[nH]2)cc1 [Example 2, 1-(2-isopropylphenyl)-4-butyl-1,3-dihydro-3-[2′-(1H -tetrazol-5-yl)[1,1′-biphenyl]-4-ylmethyl]-2H-imidazol-2-one]
- pIC50 [1]: 7.01
- Assay B pA2: type of antagonism (rabbit aortic rings): NC
- Assay C Duration (pressor response to AII): > 180 min
- Assay C Inhibition (%) (pressor response to AII): 70%
- melting point: 167 to 168 °C

SMILES: CCCCc1cn(-c2ccccc2CC)c(=O)n1Cc1ccc(-c2ccccc2-c2nnn[nH]2)cc1 [Example 1, 1-(2-ethylphenyl)-4-butyl-1,3-dihydro-3-[2′-(1H-tetrazol-5-yl)[1,1′-biphenyl]-4-ylmethyl]-2H-imidazol-2-one]
- pIC50 [1]: 7.85
- Assay B pA2: type of antagonism (rabbit aortic rings): NC
- Assay C Inhibition (%) (pressor response to AII): 20%/—
- melting point: 188 to 189 °C

SMILES: CCCCc1cn(-c2c(C)cccc2Cl)c(=O)n1Cc1ccc(-c2ccccc2-c2nnn[nH]2)cc1 [Example 4, 1-(2-chloro-6-methylphenyl) -4-butyl-1,3-dihydro-3-[2′-(1H-tetrazol-5-yl) [1,1′-biphenyl]-4-ylmethyl]-2H -imidazol-2-one]
- pIC50 [1]: 7.89
- Assay C Duration (pressor response to AII): > 180 min
- Assay C Inhibition (%) (pressor response to AII): 35%
- melting point: 163 to 164 °C

SMILES: CCCCc1cn(-c2c(OC)cccc2OC)c(=O)n1Cc1ccc(-c2ccccc2-c2nnn[nH]2)cc1 [Example 3, 1-(2,6-dimethoxyphenyl)-4-butyl-1,3-dihydro-3-[2′-(1H -tetrazol-5-yl)[1,1′-biphenyl]-4-ylmethyl]-2H-imidazol-2-one]
- pIC50 [1]: 8.01
- Assay C Duration (pressor response to AII): > 180 min
- Assay C Inhibition (%) (pressor response to AII): 25%
- melting point: 189 to 191 °C (dec.)

Further lines, with some results ahead:

- pIC50 [1]: 7.48
- melting point: 198 to 200 °C (dec.)
SMILES: CCCCc1cn(-c2c(CC)cccc2CC)c(=O)n1Cc1ccc(-c2ccccc2-c2nnn[nH]2)cc1 [Example 6, 1-(2,6-diethylphenyl) -4-butyl-1,3-dihydro-3-[2′-(1H -tetrazol-5-yl) [1,1′-biphenyl]-4-ylmethyl]-2H-imidazol-2-one]
- Assay C Inhibition (%) (pressor response to AII): <20%

- pIC50 [1]: 8.20
- melting point: 177 to 178 °C (dec.)
SMILES: CCCCc1cn(-c2c(C)cccc2C)c(=O)n1Cc1ccc(-c2ccccc2-c2nnn[nH]2)cc1 [Example 5, 1-(2,6-dimethylphenyl)-4-butyl-1,3-dihydro-3-[2′-(1H-tetrazol-5-yl)[1,1′-biphenyl]-4-ylmethyl]-2H -imidazol-2-one]
- Assay C Duration (pressor response to AII): > 180 min
- Assay C Inhibition (%) (pressor response to AII): 40%

- pIC50 [1]: 6.57
- melting point: 134 to 135 °C
SMILES: CCCCc1cn(-c2c(C)cc(C(C)(C)C)cc2C)c(=O)n1Cc1ccc(-c2ccccc2-c2nnn[nH]2)cc1 [Example 9, 1-(2,6-dimethyl-4-tertbutylphenyl) -4-butyl-1,3-dihydro-3-[2′-(1H-tetrazol-5-yl)[1,1′-biphenyl]-4-ylmethyl]-2H -imidazol-2-one]

- pIC50 [1]: 6.72
- melting point: 202 to 203 °C (dec.)
SMILES: CCCCc1cn(-c2c(C(C)C)cccc2C(C)C)c(=O)n1Cc1ccc(-c2ccccc2-c2nnn[nH]2)cc1 [Example 7, 1-(2,6-diisopropylphenyl)-4-butyl-1,3-dihydro-3-[2′-(1H-tetrazol-5-yl)[1,1′-biphenyl]-4-ylmethyl]-2H -imidazol-2-one]

- pIC50 [1]: 7.52
- melting point: 187 to 188 °C (dec.)
SMILES: CCCCc1cn(-c2c(C)cc(C)cc2C)c(=O)n1Cc1ccc(-c2ccccc2-c2nnn[nH]2)cc1 [Example 8, 1-(2,4,6-trimethylphenyl)-4-butyl-1,3-dihydro-3-[2′-(1H-tetrazol-5-yl)[1,1′-biphenyl]-4-ylmethyl]-2H -imidazol-2-one]
- Assay C Duration (pressor response to AII): > 180 min
- Assay C Inhibition (%) (pressor response to AII): 50%
